Source: US6153611A, “Piperazinyl-cyclohexanes and cyclohexenes” (Bristol-Myers Squibb Company, priority 1993, dated 2000)
Where two headings read alike, the source gives them in different places.

Experiments:
brain ischemia = test: Anoxic Nitrogen Test in Rats; type: in vivo, male Sprague-Dawley rats; details: Rattus norvegicus, sc, subcutaneously, 2 hr survival, read-out: Nitrogen Anoxia % Survival
Text: Most specifically, administration of the compounds of Formula I results in protection against hypoxia-induced death in an anoxic nitrogen test in rats (Example 66). The test identifies the neuro-protective effects of substances against lethal brain damages produced by a lack of oxygen consumption (anoxia). In this test procedure, control animals exposed for one minute to a pure nitrogen atmosphere will expire because of respiratory failure caused by irreversible damage to the brain respiratory center.
Anoxic Nitrogen Test in Rats
The animals utilized are male Sprague-Dawley rats (200-400 grams) housed four animals per cage in a normal controlled environment with unlimited access to food and water. Usually there are 8 animals per dose, however, […] can be employed to obtain an initial impression of a compound's activity. Animals are parenterally or orally administered the vehicle or test compound 30 minutes before the anoxic insult. The anoxic episode consists of placing up to 8 animals in the sealed test chamber (10" l×10" w×6" h) continuously flushed with pure N2 (4.5 grade) at a flow rate of 5 SCFM for 1 min. Animals are then promptly removed to normal atmosphere and observed for the 2 hour period. Typically, animals become disoriented within 15 sec after which they remain motionless.
Even though the heart is still beating after the N2 exposure, all control animals fail to gasp when removed from the chamber and usually expire within 3 minutes. Drug treated animals, however, still gasp or start gasping after being removed, which is a good indication that the animals will survive the N2 exposure [see Wauquire, A., et al: Arch. Int. Pharmacodyn., 249, 330-334 (1981); Wauquier, A., et al: Drug Dev. Res., 8, 373-380 (1986)]. Results are recorded as:
(Number of animals surviving (2 hr))/(Number of animals tested)×100%
The anoxic nitrogen test is an in vivo model of brain ischemia in rats [see: Wauquire, A., et al: Arch. Int. Pharmacodyn., 249, 330-334 (1981); Wauquier, A., et al: Drug Dev. Res., 8, 373-380 (1986)]. Compounds of the present invention are active in this in vivo model of brain ischemia when given subcutaneously in the doses indicated in Table 2, thus providing additional evidence that the present compounds will be useful in the treatment of brain ischemia.

sigma receptor = target: T1, sigma receptor (Cavia porcellus, UniProt Q60492); test: Sigma binding (method of Tam and Cook)
T1 construct: from tissue
T1 sequence (Q60492 whole entry): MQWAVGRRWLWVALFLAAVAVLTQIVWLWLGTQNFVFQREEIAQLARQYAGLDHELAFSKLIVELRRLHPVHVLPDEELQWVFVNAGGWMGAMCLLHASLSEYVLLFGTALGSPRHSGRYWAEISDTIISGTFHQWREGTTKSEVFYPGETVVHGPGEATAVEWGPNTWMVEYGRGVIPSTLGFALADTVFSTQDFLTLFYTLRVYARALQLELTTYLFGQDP
Procedure: In vitro IC50 test values for binding to the sigma receptor were determined for representative compounds of Formula I by the method of Tam and Cook [see: Tam, S. W., and Cook, L: Proc. Natl. Acad. Sci. USA 81, 5618-5621 (1984)] with only minor modifications. Test IC50 values lower than 100 nM are considered to reflect activity at the sigma receptor.

Dopamine D2 = target: T2, Dopamine D2 (Rattus norvegicus, UniProt P61169); test: Dopamine D2 Binding Assay ([3H]Spiperone, corpus striatum membranes); parameters: species or system male Sprague-Dawley rats; details: [3H]Spiperone 0.1 nM, 37° C., 15 min
T2 construct: The corpus striatum was crudely dissected and frozen on dry ice; from tissue; host or cells: rat corpus striatum membranes (male Sprague-Dawley rats, Charles River)
T2 sequence (P61169 whole entry): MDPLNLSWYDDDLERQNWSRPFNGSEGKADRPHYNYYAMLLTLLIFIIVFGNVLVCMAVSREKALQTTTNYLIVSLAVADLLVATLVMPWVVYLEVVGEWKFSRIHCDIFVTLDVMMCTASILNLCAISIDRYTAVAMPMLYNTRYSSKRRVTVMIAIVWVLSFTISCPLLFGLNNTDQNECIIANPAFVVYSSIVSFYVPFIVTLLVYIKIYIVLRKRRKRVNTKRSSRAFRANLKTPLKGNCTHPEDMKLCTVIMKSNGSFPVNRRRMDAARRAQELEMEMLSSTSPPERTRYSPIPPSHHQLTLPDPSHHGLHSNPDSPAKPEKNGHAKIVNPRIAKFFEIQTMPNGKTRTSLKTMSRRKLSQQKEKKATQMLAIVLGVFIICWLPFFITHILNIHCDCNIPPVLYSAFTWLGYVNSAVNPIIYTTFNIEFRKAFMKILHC
Procedure: Activity at D2 sites is measured using the screening process set out in Example 67.
Dopamine D2 Binding Assay
Dopamine D2 affinity was determined according to the procedures of Burt, Creese and Snyder [Molecular Pharmacology 12,800 (1976); Science 196, 326 (1977); Science 192, 481 (1976)]. Briefly, male Sprague-Dawley rats (Charles River) were decapitated, brains rapidly removed and chilled in ice-cold 50 mM Hepes/KOH buffer (pH 7.4, 20° C.). The corpus striatum was crudely dissected and frozen on dry ice. Tissue was pooled and stored at -80° C. until use. On the day of assay, tissue was thawed in 20 ml ice-cold Hepes/KOH buffer, and homogenized with a polytron for 15 sec at 18,000 rpm. The homogenate was centrifuged (39,000×g, 10 min, at 4° C.). The supernatant was discarded and the pellet rehomogenized in ice-cold Hepes/KOH buffer and recentrifuged as described previously. The supernatant was again discarded and the pellet resuspended (1:100) in ice-cold Hepes/KOH buffer (pH 7.4, 20° C., containing 120 mM NaCl, 5 mM KCl, 1 mM MgCl2, 0.1% (w/v) ascorbic acid, and 10 μM pargylline, and stored on ice until assay. The binding assay (1 ml total volume) was performed in duplicate and initiated by the addition of 800 μl membrane homogenate to tubes containing 100 μl [^3 H]Spiperone (0.1 nM final concentration), and 100 μl competitor, buffer, or butaclamol, which was used to define the non-specific binding. The assay was incubated at 37° C. for 15 min, afterwhich the assay was terminated by rapid filtration.
In vitro IC50 test values for binding to the D2 receptor were determined for representative compounds of Formula I by the method of Burt, Creese, and Snyder, Molecular Pharmacology 12, 800 (1976); Creese, Burt, and Snyder, Science 196, 326 (1977); and Creese, Burt and Snyder, Science 192, 481 (1976). Test IC50 values greater than 1,000 nM are considered to reflect inactivity at the D2 receptor, indicating the risk of extrapyramidal side effects is small.

| SMILES | responders at 10 mg/kg (brain ischemia; 10 & 60 mg/kg) | IC50 (sigma receptor) | IC50 (Dopamine D2) | responders at 20 mg/kg (brain ischemia; 20 mg/kg) | responders at 20 mg/kg (brain ischemia; 20 & 40 mg/kg) | responders at 10 mg/kg (brain ischemia; 10 mg/kg) | responders at 40 mg/kg (brain ischemia) |
| --- | --- | --- | --- | --- | --- | --- | --- |
| Fc1ccc2[nH]cc(C3=CCC(N4CCN(Cc5ccccc5)CC4)CC3)c2c1 (stereo not drawn) [Example 49, 5-Fluoro-3-{4-[4-(phenylmethyl)-1-piperazinyl]-1-cyclohexen-1-yl]-1H-indole] | 92% | 8.6 nM | 1000 to 10000 nM | – | – | – | – |
| Clc1ccc2[nH]cc(C3=CCC(N4CCN(Cc5ccccc5)CC4)CC3)c2c1 (stereo not drawn) [Example 50, 5-Chloro-3-{4-[4-(phenylmethyl)-1-piperazinyl]-1-cyclohexen-1-yl]-1H-indole] | – | 31.4 nM | 10000 to 50000 nM | 100% | – | – | – |
| Fc1ccc2[nH]cc(C3=CCC(N4CCC(Cc5ccccc5)CC4)CC3)c2c1 (stereo not drawn) [Example 51, 5-Fluoro-3-{4-[4-(phenylmethyl)-1-piperidinyl]-1-cyclohexen-1-yl]-1H-indole] | – | 11.1 nM | 1000 to 10000 nM | – | 67% | – | – |
| COc1cccc(CC2CCN(C3CC=C(c4ccc5c(c4)OCO5)CC3)CC2)c1 (stereo not drawn) [Example 52, 1-[4-(1,3-Benzodioxol-5-yl)-3-cyclohexen-1-yl]-4-[(3-methoxyphenyl)methyl]piperidine] | – | 7.4 nM | 1000 to 10000 nM | – | – | 38% | – |
| Fc1ccc(F)c(CC2CCN(C3CC=C(c4ccc5c(c4)OCO5)CC3)CC2)c1 (stereo not drawn) [Example 54, 1-[4-(1,3-Benzodioxol-5-yl)-3-cyclohexen-1-yl]-4-[(2,5-difluorophenyl)methyl]piperidine] | – | 3.6 nM | 1000 to 10000 nM | – | – | 38% | – |
| COc1cccc(CN2CCN(C3CC=C(c4ccc(F)cc4)CC3)CC2)c1 (stereo not drawn) [Example 60, 1-[(4-Fluorophenyl)-3-cyclohexen-1-yl]-4-[(3-methoxyphenyl)methyl]piperazine] | – | 5.2 nM | 1000 to 10000 nM | – | – | 50% | – |
| Fc1ccc([C@H]2CC[C@@H](N3CCN(Cc4ccccc4)CC3)CC2)c2ccccc12 [Example 62-cis, Cis and trans 1-[4-(4-fluoro-1-naphthalenyl)-1-cyclohexyl]-4-(phenylmethyl)piperazine] | – | 6.9 nM | > 100000 nM | – | – | – | 63% |
| Fc1ccc([C@H]2CC[C@H](N3CCN(Cc4ccccc4)CC3)CC2)c2ccccc12 [Example 62-trans, Cis and trans 1-[4-(4-fluoro-1-naphthalenyl)-1-cyclohexyl]-4-(phenylmethyl)piperazine] | – | 3.3 nM | > 100000 nM | – | – | – | 100% |
| Fc1ccc([C@H]2CC[C@H](N3CCN(Cc4ccccc4)CC3)CC2)cc1 [Example 63, Trans 1-[4-(4-fluorophenyl)-1-cyclohexyl]-4-(phenylmethyl)piperazine] | – | 0.7 nM | 1000 to 10000 nM | – | 75% | – | – |
| COc1cccc(CN2CCN([C@H]3CC[C@H](c4ccc(F)cc4)CC3)CC2)c1 [Example 65, Trans 1-[4-(4-fluorophenyl)-1-cyclohexyl]-4-[(3-methoxyphenyl)methyl]piperazine] | – | 3.2 nM | 1000 to 10000 nM | – | – | 62% | – |
